Experimental data published in article PMC8348101, “Personal Glucose Meter for α-Glucosidase Inhibitor Screening Based on the Hydrolysis of Maltose” (Molecules, 2021).

Biological target: T1, α-glucosidase (Aspergillus niger, UniProt P56526)
T1 construct: gene aglA
T1 sequence (P56526 26-985): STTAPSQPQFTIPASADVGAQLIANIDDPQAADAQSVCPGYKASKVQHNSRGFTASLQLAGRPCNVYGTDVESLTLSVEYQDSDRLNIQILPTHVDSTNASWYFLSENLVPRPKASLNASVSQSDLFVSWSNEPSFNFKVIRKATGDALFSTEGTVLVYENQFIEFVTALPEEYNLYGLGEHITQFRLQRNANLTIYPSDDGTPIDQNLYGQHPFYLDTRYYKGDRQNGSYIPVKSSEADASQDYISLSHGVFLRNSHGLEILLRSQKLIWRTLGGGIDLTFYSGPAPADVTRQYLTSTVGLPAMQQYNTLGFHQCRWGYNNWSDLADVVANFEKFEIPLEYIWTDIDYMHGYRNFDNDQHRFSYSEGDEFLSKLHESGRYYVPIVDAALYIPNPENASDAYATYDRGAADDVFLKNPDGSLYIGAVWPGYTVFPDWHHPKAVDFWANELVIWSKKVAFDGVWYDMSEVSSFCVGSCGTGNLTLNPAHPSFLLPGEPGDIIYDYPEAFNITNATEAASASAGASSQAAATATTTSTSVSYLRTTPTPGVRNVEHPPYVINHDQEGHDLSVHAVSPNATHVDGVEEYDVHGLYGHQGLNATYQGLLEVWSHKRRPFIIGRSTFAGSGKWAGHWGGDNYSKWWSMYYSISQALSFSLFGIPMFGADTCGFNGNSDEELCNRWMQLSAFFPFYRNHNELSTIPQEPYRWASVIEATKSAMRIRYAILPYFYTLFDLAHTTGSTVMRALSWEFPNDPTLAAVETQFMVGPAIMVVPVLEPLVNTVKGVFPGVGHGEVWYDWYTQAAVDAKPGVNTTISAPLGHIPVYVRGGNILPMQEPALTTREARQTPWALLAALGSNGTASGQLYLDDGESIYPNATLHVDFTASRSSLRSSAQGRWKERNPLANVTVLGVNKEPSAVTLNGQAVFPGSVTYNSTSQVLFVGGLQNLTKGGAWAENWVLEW
Assay: personal glucose meter assay of maltose hydrolysis, single concentration […]
Format: biochemical

SMILES: OC[C@H]1O[C@@H](Oc2c(O)cc(O)cc2/C=C/c2ccc(O)cc2)[C@H](O)[C@@H](O)[C@@H]1O [TSG, 2,3,5,4′-tetrahydroxy stilbene-2-O-β-D-glucoside]
- inhibition at 5000 µM: 27 ± 2%

SMILES: O=C(/C=C/c1ccc(O)c2c1[C@H](C(=O)O)[C@@H](c1ccc(O)c(O)c1)O2)O[C@H](Cc1ccc(O)c(O)c1)C(=O)O [lithospermic acid]
- inhibition at 5000 µM: 52.5 ± 3%

SMILES: O=Cc1ccc(O)c(O)c1 [protocatechualdehyde]
- inhibition at 5000 µM: 36.8 ± 2.8%
